Results as given in patent US10344017B2, “Pyrrolcarboxamide derivatives for the inhibition of ERK5” (CANCER RESEARCH TECHNOLOGY LIMITED, priority 2014, dated 2019).
Read-outs that look alike come from different tables or passages of the source.

Tests used:
ERK5 = target: T1, ERK5 (Homo sapiens, UniProt Q13164); experiment: ERK5 IMAP assay (fluorescence polarisation); type: biochemical
T1 construct: made in house

[1] = test system: ERK5 (HA-ERK5 wt activated by EGFP-MEK5D, MEF2D-Gal4/Gal4-Luc reporter) in HEK293 cells; experiment: Dual-luciferase reporter assay (ERK5 reporter), reverse-transfected HEK293 cells; conditions: Homo sapiens, HEK293, read-out: ERK 5 Reporter Assay
Experimental: Dual-Luciferase Reporter Assay
Trypsinizing of Adherent Cell Colonies
Cells were regularly passaged in order to maintain optimum colony sizes on plates. In order to do this, and to harvest cells for use in the dual-luciferase reporter assay, adherent cells were lifted from tissue culture dishes. Cell media was removed via aspiration, and the cell monolayer was washed with phosphate buffered saline (PBS) solution (10 mL), which was then aspirated.
Reverse Transfection of HEK293 Cells
Preparation of EGFP Control (C3) Working Solution (for 1×96 Well Plate)
Preparation of HEK293 Cells for Reverse Transfection
Trypsinized HEK293 cells were re-suspended in 19 mL of fresh cell media and counted using haemocytometry. Cells were then diluted with fresh cell media to achieve a final cell concentration of 2×10^5 cells/mL. 1237.5 μL and 7425 μL of this cell media was added to the C3 and 5D working solutions respectively. 100 μL of the transfected cells were then aliquoted into the appropriate wells in a 96-well opaque sided tissue culture plate, and incubated at 37° C. for 6 h.
Addition of Compounds to HEK293 Cells
4 compounds was assayed per 96-well plate. For each compound, 1 mL of growth media was added to eight 1.5 mL Eppendorf® tubes. 6 μL of DMSO was added to two tubes for C3 and blank 5D wells, and 6 μL of the relevant compound stock solution was added to the 6 remaining tubes. […] Solutions of drug in media were thoroughly mixed, and 100 μL of the relevant compound was transferred (in triplicate) to the 96-well plate containing transfected HEK293 cells using an electronic multichannel pipette with variable tip spacing. Sealed plates were incubated at 37° C. for 24 h. Final compound concentrations were as follows; 30 μM, 10 μM, 3 μM, 1 μM and 0.3 μM.
15 mL of 1× passive lysis buffer (PLB) was prepared using 5×PLB (Dual-Luciferase Reporter Assay System, Promega® E1960), diluting with H2O. Assay plates prepared were removed from the incubator and the growth media removed by aspiration.

[2] = average (e.g. geometric mean) where more than one data point, read-out: ERK5 IC50

T1 sequence (Q13164 whole entry): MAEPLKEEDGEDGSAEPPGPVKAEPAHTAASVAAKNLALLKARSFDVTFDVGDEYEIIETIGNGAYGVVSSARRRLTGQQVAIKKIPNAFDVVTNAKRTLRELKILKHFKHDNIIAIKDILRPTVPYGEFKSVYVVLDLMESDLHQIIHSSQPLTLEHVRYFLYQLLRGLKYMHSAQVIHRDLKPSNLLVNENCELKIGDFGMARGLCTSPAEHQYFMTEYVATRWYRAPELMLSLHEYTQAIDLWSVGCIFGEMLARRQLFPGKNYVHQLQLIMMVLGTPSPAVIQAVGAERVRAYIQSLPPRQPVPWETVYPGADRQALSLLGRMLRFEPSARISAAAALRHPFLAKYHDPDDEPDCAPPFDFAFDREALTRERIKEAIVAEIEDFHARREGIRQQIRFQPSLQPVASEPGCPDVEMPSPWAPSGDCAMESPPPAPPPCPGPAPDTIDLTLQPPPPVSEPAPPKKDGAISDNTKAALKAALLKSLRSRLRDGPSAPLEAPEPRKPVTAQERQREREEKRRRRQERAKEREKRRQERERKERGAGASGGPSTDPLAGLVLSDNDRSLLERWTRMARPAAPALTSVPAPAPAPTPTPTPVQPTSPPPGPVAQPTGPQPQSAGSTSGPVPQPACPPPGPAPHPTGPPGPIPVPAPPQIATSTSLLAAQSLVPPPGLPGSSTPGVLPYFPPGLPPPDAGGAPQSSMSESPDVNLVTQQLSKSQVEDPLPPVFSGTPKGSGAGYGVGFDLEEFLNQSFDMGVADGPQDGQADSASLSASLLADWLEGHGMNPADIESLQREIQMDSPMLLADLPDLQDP

| Structure (SMILES) | IC50 (ERK5; [2]) [nM] | IC50 (ERK5) [nM] | IC50 [1] [nM] |
| --- | --- | --- | --- |
| O=C(NC1CCNCC1)c1cc(C(=O)c2c(F)cccc2Cl)c[nH]1 [Example 3, 4-(2-Chloro-6-fluorobenzoyl)-N-(piperidin-4-yl)-1H-pyrrole-2-carboxamide] | 487 |  | 3500 |
| O=C(NC1CCNCC1)c1cc(C(=O)c2c(Cl)ccc(Cl)c2F)c[nH]1 [Example 4, 4-(3,6-Dichloro-2-fluorobenzoyl)-N-(piperidin-4-yl)-1H-pyrrole-2-carboxamide] |  |  | 2340 |
| CC(=O)N1CCC(NC(=O)c2cc(C(=O)c3c(Cl)ccc(Cl)c3F)c[nH]2)CC1 [Example 7, N-(1-Acetylpiperidin-4-yl)-4-(3,6-dichloro-2-fluorobenzoyl)-1H-pyrrole-2-carboxamide] | 87.8 |  | 968 |
| CS(=O)(=O)N1CCC(NC(=O)c2cc(C(=O)c3c(Cl)ccc(Cl)c3F)c[nH]2)CC1 [Example 9, 4-(3,6-Dichloro-2-fluorobenzoyl)-N-(1-(methylsulfonyl)piperidin-4-yl)-1H-pyrrole-2-carboxamide] | 144 |  | 826 |
| CN1CCN(c2ccc(NC(=O)c3cc(C(=O)c4c(F)cccc4Cl)c[nH]3)cn2)CC1 [Example 31, 4-(2-Chloro-6-fluorobenzoyl)-N-(6-(4-methylpiperazin-1-yl)pyridin-3-yl)-1H-pyrrole-2-carboxamide] | 91.5 |  | 1180 |
| O=C(Nc1cnn(C2CCNCC2)c1)c1cc(C(=O)c2c(F)cccc2Cl)c[nH]1 [Example 52, 4-(2-Chloro-6-fluorobenzoyl)-N-(1-(piperidin-4-yl)-1H-pyrazol-4-yl)-1H-pyrrole-2-carboxamide] | 123 |  | 8810 |
| O=C(Nc1cccnc1)c1cc(C(=O)c2c(F)cccc2F)c[nH]1 [Example 122, 4-(2,6-Difluorobenzoyl)-N-(pyridin-3-yl)-1H-pyrrole-2-carboxamide] |  | 1120 | 26000 |
| CC(C)(C)OC(=O)N1CCC(NC(=O)c2cc(C(=O)c3c(F)cccc3F)c[nH]2)CC1 [Example 123, tert-Butyl 4-(4-(2,6-difluorobenzoyl)-1H-pyrrole-2-carboxamido)piperidine-1-carboxylate] | 2860 |  | 25000 |
| O=C(NC1CCOCC1)c1cc(C(=O)c2c(F)cccc2F)c[nH]1 [Example 124, 4-(2,6-Difluorobenzoyl)-N-(tetrahydro-2H-pyran-4-yl)-1H-pyrrole-2-carboxamide] | 2250 |  | 23300 |
| O=C(NC1CCNCC1)c1cc(C(=O)c2c(F)cccc2F)c[nH]1 [Example 126, 4-(2,6-Difluorobenzoyl)-N-(piperidin-4-yl)-1H-pyrrole-2-carboxamide] | 1260 |  | 18300 |
| CN1CCC(NC(=O)c2cc(C(=O)c3c(F)cccc3F)c[nH]2)CC1 [Example 129, 4-(2,6-Difluorobenzoyl)-N-(1-methylpiperidin-4-yl)-1H-pyrrole-2-carboxamide] | 1130 |  | 6000 |
| COc1ccc(Cl)c(C(=O)c2c[nH]c(C(=O)Nc3cnc(CN4CCOCC4)nc3)c2)c1F [Example 243, 4-(6-Chloro-2-fluoro-3-methoxybenzoyl)-N-(2-(morpholinomethyl)pyrimidin-5-yl)-1H-pyrrole-2-carboxomide] | 129 |  |  |
| COc1ccc(Cl)c(C(=O)c2c[nH]c(C(=O)Nc3cnc(CC4CCN(C)CC4)nc3)c2)c1F [Example 247, 4-(6-Chloro-2-fluoro-3-methoxybenzoyl)-N-(2-((1-methylpiperidin-4-yl)methyl)pyrimidin-5-yl)-1H-pyrrole-2-carboxamide] | 18.1 |  |  |
| COc1ccc(Cl)c(C(=O)c2c[nH]c(C(=O)Nc3ccc(CN4CCNCC4)nc3)c2)c1F [Example 251, 4-(6-Chloro-2-fluoro-3-methoxybenzoyl)-N-(6-(piperazin-1-ylmethyl)pyridin-3-yl)-1H-pyrrole-2-carboxamtde] | 7.9 |  |  |
| O=C(Nc1cccnc1)c1cc(C(=O)c2c(Cl)ccc(O)c2F)c[nH]1 [Example 254, 4-(6-Chloro-2-fluoro-3-hydroxybenzoyl)-N-(pyridin-3-yl)-1H-pyrrole-2-carboxamide] | 1190 |  |  |
| Cn1cc(NC(=O)c2cc(C(=O)c3c(Cl)ccc(O)c3F)c[nH]2)cn1 [Example 255, 4-(6-Chloro-2-fluoro-3-hydroxybenzoyl)-N-(1-methyl-1H-pyrazol-4-yl)-1H-pyrrole-2-carboxamide] | 736 |  |  |
| CCOc1ccc(Cl)c(C(=O)c2c[nH]c(C(=O)Nc3cccnc3)c2)c1F [Example 256, 4-(6-Chloro-3-ethoxy-2-fluorobenzoyl)-N-(pyridin-3-yl)-1H-pyrrole-2-carboxamide] | 116 |  |  |

More lines, main results first:

| IC50 (ERK5; [2]) [nM] | IC50 (ERK5) [nM] | Structure (SMILES) | IC50 [1] [nM] |
| --- | --- | --- | --- |
| 203 |  | CCOc1ccc(Cl)c(C(=O)c2c[nH]c(C(=O)Nc3cnn(C)c3)c2)c1F [Example 257, 4-(6-Chloro-3-ethoxy-2-fluorobenzoyl)-N-(1-methyl-1H-pyrazol-yl)-1H-pyrrole-2-carboxamide] |  |
| 653 |  | COCCOc1ccc(Cl)c(C(=O)c2c[nH]c(C(=O)Nc3cccnc3)c2)c1F [Example 258, 4-(6-Chloro-2-fluoro-3-(2-methoxyelhoxy)benzoyl)-N-(pyridin-3-yl)-1H-pyrrole-2-carboxamide] |  |
| 483 |  | O=C(Nc1cccnc1)c1cc(C(=O)c2c(Cl)ccc(OC3CCOC3)c2F)c[nH]1 (stereo not shown) [Example 259, 4-(6-Chloro-2-fluoro-3-((tetrahydrofuran-3-yl)oxy)benzoyl)-N-(pyridin-3-yl)-1H-pyrrole-2-carboxamide] |  |
| 1190 |  | COCCOc1ccc(Cl)c(C(=O)c2c[nH]c(C(=O)Nc3cnn(C)c3)c2)c1F [Example 260, 4-(6-Chloro-2-fluoro-3-(2-methoxyethoxy)benzoyl)-N-(1-methyl-1H-pyrazol-4-yl)-1H-pyrrole-2-carboxamide] |  |
| 553 |  | Cn1cc(NC(=O)c2cc(C(=O)c3c(Cl)ccc(OC4CCOC4)c3F)c[nH]2)cn1 (stereo not shown) [Example 261, 4-(6-Chloro-2-fluoro-3-((tetrahydrofuran-3-yl)oxy)benzoyl)-N-(1-methyl-1H-pyrazol-4-yl)-1H-pyrrole-2-carboxamide] |  |
| 211 |  | CS(=O)(=O)CCNc1ccc(NC(=O)c2cc(C(=O)c3c(Cl)ccc(Cl)c3F)c[nH]2)cn1 [Example 263, 4-(3,6-Dichloro-2-fluorobenzoyl)-N-(6-((2-(methylsulfonyl)ethyl)amino)pyridin-3-yl)-1H-pyrrole-2-carboxamide] |  |
| 7450 |  | O=Cc1ccc(F)c(C(=O)c2c[nH]c(C(=O)Nc3cccnc3)c2)c1F [Example 265, 4-(2,6-difluoro-3-formylbenzoyl)-N-(pyridin-3-yl)-1H-pyrrole-2-carboxamide] |  |
| 1930 |  | O=C(Nc1cccnc1)c1cc(C(=O)c2c(F)ccc(C(=O)O)c2F)c[nH]1 [Example 266, 2,4-difluoro-3-(5-(pyridin-3-ylcarbamoyl)-1H-pyrrole-3-carbonyl) benzoic Acid] |  |
| 1740 |  | O=C(Nc1cccnc1)c1cc(C(=O)c2c(Cl)ccc(OC3CCOCC3)c2F)c[nH]1 [Example 267, 4-(6-Chloro-2-fluoro-3-((tetrahydro-2H-pyran-4-yl)oxy)benzoyl)-N-(pyridin-3-yl)-1H-pyrrole-2-carboxamide] |  |
| 2800 |  | Cn1cc(NC(=O)c2cc(C(=O)c3c(Cl)ccc(OC4CCOCC4)c3F)c[nH]2)cn1 [Example 268, 4-(6-Chloro-2-fluoro-3-((tetrahydro-2H-pyran-4-yl)oxy)benzoyl)-N-(1-methyl-1H-pyrazol-4-yl)-1H-pyrrole-2-carboxamide] |  |
| 777 |  | Cn1cc(NC(=O)c2cc(C(=O)c3c(F)cccc3Cl)c[nH]2)cn1 [Example 269, 4-(2-Chloro-6-fluorobenzoyl)-N-(1-methyl-1H-pyrazol-4-yl)-1H-pyrrole-2-carboxamide] |  |
| 458 |  | O=C(Nc1cccnc1)c1cc(C(=O)c2c(Cl)ccc(OC(CO)CCl)c2F)c[nH]1 (stereo not shown) [Example 270, 4-(6-Chloro-3-((1-chloro-3-hydroxypropan-2-yl)oxy)-2-fluorobenzoyl)-N-(pyridin-3-yl)-1H-pyrrole-2-carboxamide] |  |
| 1260 |  | O=C(Nc1cccnc1)c1cc(C(=O)c2c(Cl)ccc(OC(CCl)CCl)c2F)c[nH]1 [Example 271, 4-(6-Chloro-3-((1,3-dichloropropan-2-yl)oxy)-2-fluorobenzoyl)-N-(pyridin-3-yl)-1H-pyrrole-2-carboxamide] |  |
| 73 |  | O=C(Nc1cccnc1)c1cc(C(=O)c2c(Cl)ccc(OC3COC3)c2F)c[nH]1 [Example 272, 4-(6-Chloro-2-fluoro-3-(oxetan-3-yloxy)beruoyl)-N-(pyridin-3-yl)-1H-pyrrole-2-carboxamide] |  |
| 58.3 |  | Cn1cc(NC(=O)c2cc(C(=O)c3c(Cl)ccc(OC4COC4)c3F)c[nH]2)cn1 [Example 273, 4-(6-Chloro-2-fluoro-3-(oxetan-3-yloxy)benzoyl)-N-(1-methyl-1H-pyrazol-4-yl)-1H-pyrrole-2-carboxamide] |  |
| 3640 |  | CNCc1ccc(F)c(C(=O)c2c[nH]c(C(=O)Nc3cccnc3)c2)c1F [Example 274, 4-(2,6-difluoro-3-((methylamino)methyl)benzoyl)-N-(pyridin-3-yl)-1H-pyrrole-2-carboxamide] |  |
| 874 |  | O=C(Nc1ccc(OC2COC2)nc1)c1cc(C(=O)c2c(Cl)ccc(Cl)c2F)c[nH]1 [Example 279, 4-(3,6-Dichloro-2-fluorobenzoyl)-N-(6-(oxetan-3-yloxy)pyridin-3-yl)-1H-pyrrole-2-carboxamide] |  |
| 390 |  | O=C(Nc1ccc(OCCO)nc1)c1cc(C(=O)c2c(Cl)ccc(Cl)c2F)c[nH]1 [Example 281, 4-(3,6-Dichloro-2-fluorobenzoyl)-N-(6-(2-hydroxyethoxy)pyridin-3-yl)-1H-pyrrole-2-carboxamide] |  |
| 117 |  | COCCN(CCOC)Cc1ccc(NC(=O)c2cc(C(=O)c3c(Cl)ccc(Cl)c3F)c[nH]2)cn1 [Example 283, N-(6-((bis(2-methoxyethyl)amino)methyl)pyridin-3-yl)-4-(3,6-dichloro-2-fluorobenzoyl)-1H-pyrrole-2-carboxamide] |  |
